Reference: US11440923B2, “Substituted macrocyclic indole derivatives” (Bayer Aktiengesellschaft, priority 2017, dated 2022)
Where a name gives a salt, the structure may show the parent alone. Read-outs that look alike come from different tables or passages of the source.

Legend:
Type in all cases: cell-based
[1] = tested on: SUDHL5 cells; assay: Induction of caspase-3/7 activity in SUDHL5 cells (Assay 4)
Protocol: (§1) Induction of Caspase-3/7 Activity Upon Treatment of Cells with Selected Compounds
(§2) The BH3-domain of MCL-1 sequesters pro-apoptotic proteins, thereby inhibiting apoptosis. In contrast, MCL-1 inhibitors are expected to antagonize this effect leading to an increase in apoptosis, which can be determined by measuring the activity of caspase-3/7.
(§3) The activity of caspase-3/7 was determined in DLBCL (Diffuse large B-cell lymphoma) cell lines (SUDHL5 and SUDHL10) upon treatment with different compounds, using the Caspase-Glo® 3/7 reagent from Promega (G8092).
(§4) As a control, medium without cells was also added to the plate. Cells were incubated in a humidified incubator at 37° C. overnight.
(§5) Rim wells were excluded. The cells were incubated for 3 h hours in a humidified incubator at 37° C. After this incubation, 30 μL of Caspase-Glo® 3/7 reagent (Promega G8092) was added to each well using the Multidrop Combi Reagent Dispenser, followed by 1 h incubation at 37° C. Finally, luminescence was read at 0.1 ms, with a gain of 3000 using the PHERAstar FS microplate reader (BMG Labtech).
(§6) For the evaluation of the results, the background measured with “medium-only” was subtracted from all other values. Then, the values were normalized to DMSO-only treated cells (every value was divided by the mean of the DMSO control).

[2] = tested on: HMC-1-8 cells; assay: Antiproliferation assay HMC-1-8 (Assay 7)
Protocol: (§7) Assessment of the Anti-Proliferative Effect of Compounds in Different Cell Lines
(§8) The impact of compounds on the proliferation of different cell lines was assessed using the CellTiter-Glo® Luminescent Cell Viability reagent from Promega (G7573).
(§9) In parallel, cells were plated in a reference (day 0) plate for time zero determination. Cells were incubated in a humidified incubator at 37° C. overnight.
(§10) Rim wells were excluded. The cells were incubated for 72 h hours in a humidified incubator at 37° C. The day 0 plate was measured by adding 30 μL/well of CTG solution (CellTiter-Glo® Luminescent Cell Viability reagent, Promega G7573) to time zero wells in the reference plate followed by a 10 minutes incubation and luminescence reading at 0.1 ms. using the PHERAstar FS microplate reader (BMG Labtech).
(§11) After 72 h incubation, the treated plates were measured in the same way as the day 0 plate mentioned above. The Bella DRC Master Sheet was used to calculate IC50s, with CI=day 0 values and C0=DMSO control values.

[3] = tested on: SUDHL10 cells; assay: Induction of caspase-3/7 activity in SUDHL10 cells (Assay 4)
Protocol: as §1, §2, §3, §4, §5, §6

[4] = tested on: SUDHL5 cells; assay: Induction of cytotoxicity in SUDHL5 cells (Assay 6); details: 5 h, CellTiter-Glo; read-out: Cytotox SUDHL5 IC50 (median)
Protocol: (§12) Assay 6 Induction of Cytotoxicity Upon Treatment of Cells with Selected Compounds
(§13) In principle, compounds that induce apoptosis will concomitantly induce cell cytotoxicity. Therefore, cytotoxicity assays were run in parallel in SUDHL5 and SUDHL10 cells.
(§14) As a control, medium without cells was also added to the plate. Cells were incubated in a humidified incubator at 37° C. overnight. […] Rim wells were excluded. The cells were incubated for 5 h hours in a humidified incubator at 37° C. After this incubation, 30 μL of CellTiter-Glo® Luminescent Cell Viability reagent (Promega, G7573) was added to each well using the Multidrop Combi Reagent Dispenser, followed by 15 min incubation on a shaker at room temperature. Finally, luminescence was read at 0.1 ms, with a gain of 3000 using the PHERAstar FS microplate reader (BMG Labtech).

[5] = tested on: SUDHL5 cells; assay: Antiproliferation assay SUDHL5 (Assay 7); details: 72 h, CellTiter-Glo; read-out: Antiproli SUDHL5 IC50 (median)
Protocol: as §7, §8, §9, §10, §11

[6] = tested on: AMO-1 cells; assay: Antiproliferation assay AMO-1 (Assay 7)
Protocol: as §7, §8, §9, §10, §11

[7] = tested on: SUDHL10 cells; assay: Induction of cytotoxicity in SUDHL10 cells (Assay 6); details: 5 h, CellTiter-Glo; read-out: Cytotox SUDHL10 IC50 (median)
Protocol: as §12, §13, §14

[8] = caspase-3/7 induction, 3 h; read-out: Caspase SUDHL5 EC50 (median)
[9] = 72 h, CellTiter-Glo; read-out: Antiproli HMC-1-8 IC50 median
[10] = caspase-3/7 induction, 3 h; read-out: Caspase SUDHL10 EC50 (median)
[11] = 72 h, CellTiter-Glo; read-out: Antiproli AMO-1 IC50 median

Row | SMILES | EC50 [1, 8] [µM] | IC50 [2, 9] [µM] | EC50 [3, 10] [µM] | IC50 [4] [µM] | IC50 [5] [µM] | IC50 [6, 11] [µM] | IC50 ([2]; 72 h, CellTiter-Glo, read-out: Antiproli HMC-1-8 IC50 median) [µM] | IC50 [7] [µM] | EC50 ([1]; read-out: Caspase SUDHL5 EC50 (median); caspase-3/7 induction, 3 h) [µM] | IC50 ([2]; read-out: Antiproli HMC-1-8 IC50 median; 72 h, CellTiter-Glo) [µM] | EC50 ([3]; read-out: Caspase SUDHL10 EC50 (median); caspase-3/7 induction, 3 h) [µM] | IC50 ([6]; read-out: Antiproli AMO-1 IC50 median; 72 h, CellTiter-Glo) [µM]
1 | CCc1c2c(nn1C)C(CCN1CCOCC1)N(C)CCCCn1c(C(=O)O)c(CCCOc3cccc4cc(F)ccc34)c3ccc(Cl)c-2c31 (racemic) [Example 93, (rac)-4-chloro-3-ethyl-7-{3-[(6-fluoro-1-naphthyl)oxy]propyl}-2,14-dimethyl-(15-rac)-[2-(morpholin-4-yl)ethyl]-10,11,12,13,14,15-hexahydro-2H-pyrazolo[3′,4′:8,9][1,6]diazacycloundecino[10,11,1-hi]indole-8-carboxylic Acid] | 0.02 | 0.558 | 0.023 | 0.027 | 0.02 | 0.0589 |  |  |  |  |  | 
2 | CCc1c2c(nn1C)C(CCN1CCOCC1)OCC(F)(F)CCn1c(C(=O)O)c(CCCOc3cccc4cc(F)ccc34)c3ccc(Cl)c-2c31 (single isomer, unassigned; (-)) [Example 88, (−)-4-chloro-3-ethyl-12,12-difluoro-7-{3-[(6-fluoronaphthalen-1-yl)oxy]propyl}-2-methyl-15-[2-(morpholin-4-yl)ethyl]-2,10,11,12,13,15-hexahydropyrazolo[4′,3′:9,10][1,6]oxazacycloundecino[8,7,6-hi]indole-8-carboxylic Acid] | 0.56 | 3.12 | 1.1 | 0.76 | 0.57 | 1.35 |  |  |  |  |  | 
3 | CCc1c2c(nn1C)C(CCN1CCOCC1)OCC(F)(F)CCn1c(C(=O)O)c(CCCOc3cccc4cc(F)ccc34)c3ccc(Cl)c-2c31 (centres unmarked) [Example 89, 4-chloro-3-ethyl-12,12-difluoro-7-{3-[(6-fluoronaphthalen-1-yl)oxy]propyl}-2-methyl-15-[2-(morpholin-4-yl)ethyl]-2,10,11,12,13,15-hexahydropyrazolo[4′,3′:9,10][1,6]oxazacycloundecino[8,7,6-hi]indole-8-carboxylic Acid] | 0.03 | 0.765 | 0.03 |  | 0.036 | 0.0295 |  |  |  |  |  | 
4 | CCc1c2c(nn1C)C(CCN1CCOCC1)N(C)CCCCn1c(C(=O)O)c(CCCOc3cccc4ccccc34)c3ccc(Cl)c-2c31 (racemic) [Example 99, (rac)-4-chloro-3-ethyl-2,14-dimethyl-(15-rac)-[2-(morpholin-4-yl)ethyl]-7-{3-[(naphthalen-1-yl)oxy]propyl}-10,11,12,13,14,15-hexahydro-2H-pyrazolo[3′,4′:8,9][1,6]diazacycloundecino[10,11,1-hi]indole-8-carboxylic] | 0.076 |  | 0.059 | 0.1 | 0.071 | 0.0863 | 1.86 |  |  |  |  | 
5 | CCc1c2c(nn1C)C(CCN1CCOCC1)OCCCCn1c(C(=O)O)c(CCCOc3cccc4cc(F)ccc34)c3ccc(Cl)c-2c31 (single isomer, unassigned; enantiomer 2) [Example 24, (−)-4-chloro-3-ethyl-7-{3-[(6-fluoronaphthalen-1-yl)oxy]propyl}-2-methyl-15-[2-(morpholin-4-yl)ethyl]-2,10,11,12,13,15-hexahydropyrazolo[4′,3′:9,10][1,6]oxazacycloundecino[8,7,6-hi]indole-8-carboxylic acid—N-ethylethanamine (Enantiomer 2)] |  |  |  | 1.7 |  |  |  | 6.6 |  |  |  | 
6 | CCc1c2c(nn1C)C(CCN1CCOCC1)N(C)CCCCn1c(C(=O)O)c(CCCOc3cccc4cc(F)ccc34)c3ccc(Cl)c-2c31 (centres unmarked) [Example 97, 4-chloro-3-ethyl-7-{3-[(6-fluoronaphthalen-1-yl)oxy]propyl}-2,14-dimethyl-15-[2-(morpholin-4-yl)ethyl]-10,11,12,13,14,15-hexahydro-2H-pyrazolo[3′,4′:8,9][1,6]diazacycloundecino[10,11,1-hi]indole-8-carboxylic Acid—N-ethylethanamine Salt] | 0.011 | 0.405 | 0.011 |  | 0.012 | 0.0163 |  |  |  |  |  | 
7 | CCc1c2c(nn1C)[C@@H](CCN1CCOCC1)OCCCCn1c(C(=O)O)c(CCCOc3cccc4cc(F)ccc34)c3ccc(Cl)c-2c31 [Example 48, (15R)-4-chloro-3-ethyl-7-{3-[(6-fluoronaphthalen-1-yl)oxy]propyl}-2-methyl-15-[2-(morpholin-4-yl)ethyl]-2,10,11,12,13,15-hexahydropyrazolo[4′,3′:9,10][1,6]oxazacycloundecino[8,7,6-hi]indole-8-carboxylic Acid—N-ethylethanamine Salt] |  |  |  | 0.21 |  |  |  | 0.2 |  |  |  | 
8 | CCc1c2c(nn1C)C(CCN1CCN(C)CC1)OCCCCn1c(C(=O)O)c(CCCOc3cccc4cc(F)ccc34)c3ccc(Cl)c-2c31 (single isomer, unassigned; stereoisomer 3) [Example 72, (−)-4-chloro-3-ethyl-7-{3-[(6-fluoronaphthalen-1-yl)oxy]propyl}-2-methyl-15-[2-(4-methylpiperazin-1-yl)ethyl]-2,10,11,12,13,15-hexahydropyrazolo[4′,3′:9,10][1,6]oxazacycloundecino[8,7,6-hi]indole-8-carboxylic Acid—N-ethylethanamine Salt (Stereoisomer 3)] |  |  |  | 0.096 |  |  |  |  | 0.074 | 2.29 | 0.054 | 0.107
9 | CCc1c2c(nn1C)C(CCN1CCOCC1)OCCCCn1c(C(=O)O)c(CCCOc3cccc4cc(F)ccc34)c3ccc(Cl)c-2c31 (single isomer, unassigned; enantiomer 1) [Example 23, (+)-4-chloro-3-ethyl-7-{3-[(6-fluoronaphthalen-1-yl)oxy]propyl}-2-methyl-15-[2-(morpholin-4-yl)ethyl]-2,10,11,12,13,15-hexahydropyrazolo[4′,3′:9,10][1,6]oxazacycloundecino[8,7,6-hi]indole-8-carboxylic Acid—N-ethylethanamine (Enantiomer 1)] |  |  |  | 0.0078 |  |  |  | 0.0097 |  |  |  | 
10 | CCc1c2c(nn1C)C(CCN1CCOCC1)N(C)CCCCn1c(C(=O)O)c(CCCOc3cccc4cc(F)ccc34)c3ccc(Cl)c-2c31 (racemic) [Example 96, (rac)-4-chloro-3-ethyl-7-{3-[(6-fluoro-1-naphthyl)oxy]propyl}-2,14-dimethyl-15-(rac)-[2-(morpholin-4-yl)ethyl]-10,11,12,13,14,15-hexahydro-2H-pyrazolo[3′,4′:8,9][1,6]diazacycloundecino[10,11,1-hi]indole-8-carboxylic Acid] | 0.019 | 0.726 | 0.028 | 0.025 | 0.03 |  |  |  |  |  |  | 
